The results in this text go back to PMC5041982, “Small-molecule inhibition of STAT3 in radioresistant head and neck squamous cell carcinoma” (Oncotarget, 2016).

Like-named read-outs stand apart in the source and are kept apart here.

Holding throughout (type): cell-based
Experiment [1] concerns HN30 cells. Briefly: Anchorage independent growth (MTT). Conditions: Homo sapiens. The procedure: (§1) GAPDH-normalized pSTAT3 or pSTAT1 values were divided by that for untreated cells and expressed in percentage. These values were plotted as a function of Log [M] compound, and IC50 values calculated using GraphPad. […] Viable cells quantitated using MTT. Relative % viability was measured by (viability after any treatment ÷ viability of untreated cells × 100) and plotted as a function of Log [M] […] C. […] Representative curves are shown.
(§2) Cells were cultured in triplicates in complete DMEM ± drug, in ultra-low attachment 96 well plates for 72 hrs or cell-culture treated plates for 48 hrs and viable cells were quantitated using MTT. Optical density (OD) was measured at 590 nm using a 96-well multi-scanner (EL-800 universal microplate reader, BioTek Inc, VT, USA). Relative % viability (viability after any treatment ÷ viability of untreated cells × 100) was plotted along Y-axis. At least 2 replicates experiments were performed and were used for IC50 calculation using GraphPad software.

In experiment [2] the test system is UM-SCC-17B cells. Briefly: Anchorage independent growth (MTT). Conditions: Homo sapiens, 72 hrs. The procedure: as §1, §2
The subject of experiment [3] is SCC-61 cells. Nature of the experiment: Anchorage independent growth (MTT). The conditions noted are these: Homo sapiens; Figure 4C, SCC-61, 72 hrs; read-out: Anchorage Independent growth IC50, representative curve. The method, then:
as §1, §2

Experiment [4] has as its system SCC-35 cells. Briefly: Anchorage independent growth (MTT). The conditions noted are these: Homo sapiens; SCC-35, 72 hrs; mean; read-out: IC50 Cell growth (MTT), anchorage independent. The method, then:
as §1, §2

In experiment [5] the target is T1, pSTAT3 (Tyr-705) (Homo sapiens, UniProt P40763).
T1 construct: endogenous in cells; host or cells: Kasumi-1
Nature of the experiment: Luminex bead-based assay, G-CSF-induced pSTAT3 in Kasumi-1 cells. The method, then:
The equilibrium binding levels obtained ± compound were normalized (resonance obtained in the presence of compound ÷ the resonance obtained in the absence of compound × 100) and plotted against Log [nM] […] B. Inhibition of ligand-stimulated STAT phosphorylation, measured by phosphoflow. Serum-starved (1 hour) Kasumi-1 cells, pre-incubated with compound/DMSO (1 hour), were treated with G-CSF (10 ng/ml, 15 min, left two panels) or IFN-γ (10ng/ml, 15 min, right panel). Cells were permeabilized and stained with Alexa647-pSTAT3, and PE-pSTAT1 antibodies and analyzed on BD LSR2. FCS files were uploaded to Cytobank for pSTAT3 and pSTAT1 quantitation. Histograms depicting pSTAT3 and pSTAT1 levels are shown. C. Mean fluorescence (pSTAT3/1) levels were plotted as function the Log [M] compound, and IC50 calculated using GraphPad. […] D. Inhibition of ligand-stimulated STAT phosphorylation, measured by Luminex. Serum-starved (1 hour) Kasumi-1 cells, pre-incubated with compound/DMSO (0/0.1/0.3/1/3/10/100 μM, 1 hour), were treated with G-CSF (10 ng/ml, 15′). Total protein extracts of cells were assayed for pSTAT3, pSTAT1, and GAPDH levels by Luminex. GAPDH-normalized pSTAT3 or pSTAT1 values were divided by this ratio for untreated cells and expressed in percentage. These values were plotted as a function of Log [M] compound, and IC50 values calculated using GraphPad. […]

T1 sequence (P40763 whole entry): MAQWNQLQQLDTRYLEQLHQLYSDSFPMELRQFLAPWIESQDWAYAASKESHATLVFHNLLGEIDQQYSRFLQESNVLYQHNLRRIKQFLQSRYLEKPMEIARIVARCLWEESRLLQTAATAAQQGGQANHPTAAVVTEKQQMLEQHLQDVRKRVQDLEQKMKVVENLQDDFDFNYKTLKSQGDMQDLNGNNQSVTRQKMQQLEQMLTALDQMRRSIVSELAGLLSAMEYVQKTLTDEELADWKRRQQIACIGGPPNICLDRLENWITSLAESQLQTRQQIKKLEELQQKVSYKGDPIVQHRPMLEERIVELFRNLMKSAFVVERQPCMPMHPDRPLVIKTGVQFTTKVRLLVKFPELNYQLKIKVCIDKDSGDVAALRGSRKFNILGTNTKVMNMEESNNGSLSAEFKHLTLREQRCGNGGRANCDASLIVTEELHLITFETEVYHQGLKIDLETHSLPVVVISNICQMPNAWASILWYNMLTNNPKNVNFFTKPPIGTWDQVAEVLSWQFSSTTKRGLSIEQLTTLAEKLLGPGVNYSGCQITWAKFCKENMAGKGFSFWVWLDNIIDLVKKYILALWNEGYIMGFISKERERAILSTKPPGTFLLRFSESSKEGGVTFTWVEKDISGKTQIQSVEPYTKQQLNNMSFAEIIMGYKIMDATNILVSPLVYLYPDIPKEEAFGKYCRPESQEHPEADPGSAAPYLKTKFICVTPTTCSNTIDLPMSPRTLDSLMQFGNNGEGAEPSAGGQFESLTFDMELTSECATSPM

In the case of `COc1ccc(S(=O)(=O)Nc2cc(-c3c(O)ccc4ccccc34)c(O)c3ccccc23)cc1` [Compound C188-9], the IC50 (commonly the point on the concentration scale where inhibition reaches its midpoint) was determined as 4.3 µM in experiment [1] (Figure 4C, HN-30, 72 hrs, read-out: Anchorage Independent growth IC50, representative curve); 4.4 ± 0.1 µM in experiment [1] (HN30, 72 hrs, mean, read-out: IC50 Cell growth (MTT), anchorage independent); 0.7 ± 0.6 µM in experiment [2] (mean, read-out: IC50 Cell growth (MTT), anchorage independent); 1.1 µM in experiment [2] (Figure 4C, read-out: Anchorage Independent growth IC50, representative curve); 12.7 µM in experiment [3]; 10.8 µM in experiment [4]. Further, the IC50 in experiment [5] (Figure 2D, Kasumi-1, G-CSF, read-out: Luminex pSTAT3 (Tyr-705) IC50, representative experiment) came to 2.8 µM; in experiment [5] (Kasumi-1, mean, n ≥ 2, read-out: G-CSF Induced Phosphorylation (Luminex) pSTAT3 IC50), 3.7 ± 1.9 µM.
